Key:
[1] = tested on: Differentiation of primary naïve T-cells into Th17 cells; experiment: Inhibition of Th17 differentiation of primary naïve T-cells by halofuginone analogs; assay type: cell-based, murine; design: key: “+++” vs. “++” vs. “+” in general denotes ˜4-fold differences in potency; “+++” vs. “++” vs. “+” in general denotes ˜4-fold differences in potency; “+++” vs. “++” vs. “+” in general denotes ˜4-fold differences in potency; “−” denotes no activity at any dose tested, up to 1000× the effective dose of halofuginone; conditions: T-cell receptor stimulation+IL-6+TGFb
Method: Naïve T-cells were stimulated to differentiate in the presence or absence of 10 nM halofuginone, with 1 mM of the indicated amino acids added to the medium, and stained for Th17 differentiation on day 4. Naïve murine T cells were activated in the presence or absence of TGFβ plus IL-6 as indicated, expanded in for 4 days and restimulated with PMA and ionomycin for intracellular cytokine staining. […] Bars indicate percentage of cells differentiation as Th17 as indicated by IL17 expression.
The effect of different halofuginone and analogs thereof on differentiation of naïve T-cells was assayed as described in legend for FIG. 4 above. Differentiation of primary naïve T-cells into Th17 cells following T-cell receptor stimulation+IL-6+TGFb. “+++” vs. “++” vs. “+” in general denotes ˜4-fold differences in potency. “−” denotes no activity at any dose tested, up to 1000× the effective dose of halofuginone.

[2] = tested on: Human primary dermal fibroblasts; experiment: Inhibition of cell spreading in a fibroblast model; assay type: cell-based; design: key: “+++” vs. “++” vs. “+” in general denotes ˜4-fold differences in potency; “+++” vs. “++” vs. “+” in general denotes ˜4-fold differences in potency; “+++” vs. “++” vs. “+” in general denotes ˜4-fold differences in potency; “−” denotes no activity at any dose tested, up to 1000× the effective dose of halofuginone; conditions: spreading of cells assessed by light microscopy 28 hours after treatment
Method: The ability of halofuginone and analogs thereof to inhibit the spreading of freshly plated primary dermal fibroblasts was examined. Human primary dermal fibroblasts were replated and halofuginone added immediately after replating; spreading of cells was assessed by light microscopy 28 hours after treatment with compound. “+++” vs. “++” vs. “+” in general denotes ˜4-fold differences in potency. “−” denotes no activity at any dose tested, up to 1000× the effective dose of halofuginone.

[3] = tested on: translation of luciferase RNA in rabbit reticulocyte lysate; experiment: Translation of a luciferase RNA reporter in rabbit reticulocyte lysate; assay type: biochemical; design: key to Translational inhibition: “+++” vs. “++” vs. “+” in general denotes ˜4-fold differences in potency; “+++” vs. “++” vs. “+” in general denotes ˜4-fold differences in potency; “+++” vs. “++” vs. “+” in general denotes ˜4-fold differences in potency; “−” denotes no activity at any dose tested, up to 1000× the effective dose of halofuginone; conditions: luciferase RNA reporter
Method: To distinguish these possibilities, the effect of halofuginone on protein translation was examined in an in vitro system (rabbit reticulocyte lysate) in which amino acids are already present at levels adequate to support protein synthesis. […] Distinct tRNA synthetases catalyze the charging of individual tRNA species with their cognate amino acid. To determine which tRNA synthetase is inhibited by halofuginone, several amino acid mixtures were added to the in vitro translation system to determine which, if any, could reverse the inhibition of translation by halofuginone (FIG. 3). […] To examine whether proline could specifically rescue the effect of halofuginone in intact cells, the ability of each amino acid to reverse the effect of halofuginone on eIF2alpha phosphorylation in T-cells or to prevent halofuginone inhibition of Th17 differentiation was tested (FIG. 4). […] Inhibition of EPRS with compounds of the current invention can inhibit Th17 differentiation.
Translation in vitro was performed using rabbit reticulocyte lysates and luciferase mRNA as template. Translation was measured as arbitrary units of luciferase activity using a luminometer based luminescence assay. Log scale presentation of background-subtracted data is shown.
Inhibition of translation of luciferase RNA by halofuginone and analogs thereof was measured as described in FIG. 3 above. Results are shown of translation of a luciferase RNA reporter in a rabbit reticulocyte lysate. “+++” vs. “++” vs. “+” in general denotes ˜4-fold differences in potency. “−” denotes no activity at any dose tested, up to 1000× the effective dose of halofuginone.

[4] = tested on: eIF2α phosphorylation and ATF4 protein levels in CD4+ CD25− T cells; experiment: Amino acid response (AAR) pathway activation in T cells, western blot; assay type: cell-based, mice; conditions: 10 nM; 4 hours; T cells from wild type or GCN2−/− mice
Method: CD4+ CD25− T cells purified from wild type of GCN2−/− mice were activated through TCR for 4 hours in the presence of halofuginone (10 nM) or 9 (MAZ1310, 10 nM). Whole cell lysates were analyzed by SDS PAGE/Western blot and antibodies indicated.
Naïve T-cells were treated to stimulate the T-cell receptor (TCR) in the presence or absence of 10 nM halofuginone in the presence of 1 mM added amino acid, and then assayed for eIF2alpha activity phosphorylation by SDS PAGE/Western blot.
HF induced detectable eIF2α phosphorylation at 2.5 nM, and this effect plateaued at 5-10 nM HF (FIG. 7D). […] AAR activation was a general consequence of HF treatment; HF induced eIF2α phosphorylation, not only in T cells activated in Th17-priming conditions, but also in resting naïve T cells and T cells activated in ThN, Th1, Th2, and iTreg polarizing conditions (FIG. 7F). […] Thus, the rapid activation of the AAR pathway by HF could underlie both its selective inhibition of Th17 differentiation and its effects on fibroblasts (Pines and Nagler, Gen. Pharmacol. 30:445, 1998).
To delineate the stress response pathway activated by HF, the effects of amino acid starvation with those of tunicamycin (an inducer of ER stress) or HF treatment during T cell activation were compared.
Whole cell lysates were generated from T cells activated for the indicated times. For STAT3 and Smad2/3 western blots cells were harvested, washed in PBS and lysed in 50 mM Tris, pH 7.4, 0.1% SDS, 1% Triton-X100, 140 mM NaCl, 1 mM EDTA, 1 mM EGTA supplemented with protease inhibitors tablets (Roche, Germany), 1 mM NaF and 1 mM Na3VO4. For eIF2α and ATF4 western blots, cells were harvested as above and lysed in 50 mM Tris, pH 7.4, 2% SDS, 20% glycerol and 2 mM EDTA supplemented with protease and phosphatase inhibitors as above. All lysates were cleared via centrifugation and 15-30 μg of protein was resolved by SDS-PAGE. Protein was transferred to nitrocellulose membranes, blocked and blotted using specific antibodies. Antibodies used for western blot analysis were anti-phospho-Smad2, anti-STAT3 (pY705), anti-STAT3, anti-eIF2α^pS51, anti-eIF2α (all from Cell Signaling Technology, Danvers, Mass.). Anti-ATF4/CREB2 and anti-β-actin were purchased from Santa Cruz Biotechnology (Santa Cruz, Calif.). HRP-conjugated secondary antibodies were all purchased from Sigma, with the exception of HRP-conjugated anti-armenian hamster antibody (Jackson Immunoresearch, West Grove, Pa.).

[5] = tested on: TGFβ-induced Smad phosphorylation and lymphocyte responses to TGFβ; experiment: TGFβ signaling in T and B cells; assay type: cell-based, murine; conditions: low dose HF; 10 μM SB-431542
Method: FIG. 10. […] FIG. 10A is a set of FACS analyses of CD4^+ CD25^− T cells activated in Th1 or Th2 polarizing conditions, either in the presence or absence of TGFβ. DMSO, 10 nM HF, 10 nM MAZ1310, or 10 μM SB-431542 added as indicated at the time of activation. Intracellular cytokine staining was performed on expanded T cells on day 5.
FIG. 10D depicts western blot analyses of purified CD4^+ CD25^− T cells treated with DMSO, 40 nM MAZ1310, titrating concentrations of HF (2.5-40 nM) or 10 μM SB-431542 for 30 minutes in complete medium supplemented with 0.1% fetal calf serum. T cells were then activated in the presence or absence of 3 ng/ml TGFβ. Whole cell extracts were prepared after 1 hour of stimulation and western blot analyses were performed using the indicated antibodies.
Th17 differentiation is synergistically regulated by TGFβ and the pro-inflammatory cytokines IL-6 and IL-21. […] Since STAT3 is the major transducer of IL-6 and IL-21 signaling, the kinetics of STAT3 phosphorylation in HF-treated T cells were examined.
Whole cell lysates were generated from T cells activated for the indicated times. For STAT3 and Smad2/3 western blots cells were harvested, washed in PBS and lysed in 50 mM Tris, pH 7.4, 0.1% SDS, 1% Triton-X100, 140 mM NaCl, 1 mM EDTA, 1 mM EGTA supplemented with protease inhibitors tablets (Roche, Germany), 1 mM NaF and 1 mM Na3VO4. […]

| Structure (SMILES) | Inhibition of Th17 differentiation [1] | Fibroblast inhibition [2] | Translational inhibition [3] | phosphorylation of Ser51 of eIF2alpha, GCN2 dependence [4] | effect on TGFβ-induced Smad phosphorylation and other lymphocyte responses to TGFβ [5] |
| --- | --- | --- | --- | --- | --- |
| CC(C)(C)OC(=O)N1CCCC(O)C1CC(=O)Cn1cnc2cc(Br)c(Cl)cc2c1=O (centres unmarked) [Compound 9, (2S/R,3R/S)-tert-butyl 2-(3-(7-bromo-6-chloro-4-oxoquinazolin-3(4H)-yl)-2-oxopropyl)-3-hydroxypiperidine-1-carboxylate] | − | − | − | inactive |  |
| NC(=O)c1ccc(-c2nc(-c3ccc4c(c3)OCO4)c(-c3ccccn3)[nH]2)cc1 [SB-431542] |  |  |  |  | abrogated all responses to TGFβ |

From patent US9284297B2, “Halofuginone analogs for inhibition of tRNA synthetases and uses thereof” (President and Fellows of Harvard College, priority 2008, dated 2016)
